Measured values as given in the supplement of paper PMC11451515.

Test system: SEM cells
Experiment: cell viability relative to DMSO control; higher = less cytotoxic
Details: 48 h
Summary of the method: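 Viability values are per-plate percentages of DMSO wells, with background from cell-free wells. Library compounds in DMSO were pin-dosed, in an 11-point threefold series from 47 μM to 0.79 nM, onto NOMO1 or SEM (500 cells/well) or P12-Ichikawa (1000 cells/well) leukemia cells in 1536-well plates (5 μl). Those cells had been adapted for at least four passages in each medium, and CellTiter-Glo One luminescence was read after 48 h at 37°C.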

[1] = HPLM + 10% dialyzed FBS, 0.000781 µM
[2] = HPLM + 10% dialyzed FBS, 0.00234 µM
[3] = HPLM + 10% dialyzed FBS, 0.00702 µM
[4] = HPLM + 10% dialyzed FBS, 0.0211 µM
[5] = HPLM + 10% dialyzed FBS, 0.0632 µM
[6] = HPLM + 10% dialyzed FBS, 0.19 µM
[7] = HPLM + 10% dialyzed FBS, 0.569 µM
[8] = HPLM + 10% dialyzed FBS, 1.71 µM
[9] = HPLM + 10% dialyzed FBS, 5.12 µM
[10] = HPLM + 10% dialyzed FBS, 15.4 µM
[11] = HPLM + 10% dialyzed FBS, 46.1 µM
[12] = RPMI 5 mM glucose + 10% FBS, 0.000781 µM
[13] = RPMI 5 mM glucose + 10% FBS, 0.00234 µM
[14] = RPMI 5 mM glucose + 10% FBS, 0.00702 µM
[15] = RPMI 5 mM glucose + 10% FBS, 0.0211 µM
[16] = RPMI 5 mM glucose + 10% FBS, 0.0632 µM
[17] = RPMI 5 mM glucose + 10% FBS, 0.19 µM
[18] = RPMI 5 mM glucose + 10% FBS, 0.569 µM
[19] = RPMI 5 mM glucose + 10% FBS, 1.71 µM
[20] = RPMI 5 mM glucose + 10% FBS, 5.12 µM
[21] = RPMI 5 mM glucose + 10% FBS, 15.4 µM
[22] = RPMI 5 mM glucose + 10% FBS, 46.1 µM
[23] = RPMI 5 mM glucose + 10% dialyzed FBS, 0.000781 µM
[24] = RPMI 5 mM glucose + 10% dialyzed FBS, 0.00234 µM
[25] = RPMI 5 mM glucose + 10% dialyzed FBS, 0.00702 µM
[26] = RPMI 5 mM glucose + 10% dialyzed FBS, 0.0211 µM
[27] = RPMI 5 mM glucose + 10% dialyzed FBS, 0.0632 µM
[28] = RPMI 5 mM glucose + 10% dialyzed FBS, 0.19 µM
[29] = RPMI 5 mM glucose + 10% dialyzed FBS, 0.569 µM
[30] = RPMI 5 mM glucose + 10% dialyzed FBS, 1.71 µM
[31] = RPMI 5 mM glucose + 10% dialyzed FBS, 5.12 µM
[32] = RPMI 5 mM glucose + 10% dialyzed FBS, 15.4 µM
[33] = RPMI 5 mM glucose + 10% dialyzed FBS, 46.1 µM

| SMILES | cell viability [1] [%] | cell viability [2] [%] | cell viability [3] [%] | cell viability [4] [%] | cell viability [5] [%] | cell viability [6] [%] | cell viability [7] [%] | cell viability [8] [%] | cell viability [9] [%] | cell viability [10] [%] | cell viability [11] [%] | cell viability [12] [%] | cell viability [13] [%] | cell viability [14] [%] | cell viability [15] [%] | cell viability [16] [%] | cell viability [17] [%] | cell viability [18] [%] | cell viability [19] [%] | cell viability [20] [%] | cell viability [21] [%] | cell viability [22] [%] | cell viability [23] [%] | cell viability [24] [%] | cell viability [25] [%] | cell viability [26] [%] | cell viability [27] [%] | cell viability [28] [%] | cell viability [29] [%] | cell viability [30] [%] | cell viability [31] [%] | cell viability [32] [%] | cell viability [33] [%] |
| --- | --- | --- | --- | --- | --- | --- | --- | --- | --- | --- | --- | --- | --- | --- | --- | --- | --- | --- | --- | --- | --- | --- | --- | --- | --- | --- | --- | --- | --- | --- | --- | --- | --- |
| C/C(O)=C(\C#N)C(=O)Nc1cc(Br)ccc1Br | 108 | 102 | 112 | 107 | 112 | 110 | 107 | 109 | 108 | 32.2 | 75.4 | 122 | 104 | 104 | 106 | 119 | 112 | 99 | 113 | 106 | 32.8 | 84.9 | 112 | 110 | 108 | 118 | 107 | 108 | 105 | 111 | 99 | 32 | 70.5 |
| CCC(=C/[C@H](C)C/C=C/C(C)=C/[C@@H](C)C(=O)[C@@H](C)[C@H](O)[C@@H](C)C/C(C)=C/C(=O)O)/C=C/[C@@H]1OC(=O)C=C[C@@H]1C | 59.9 | 88.8 | 77.7 | 79.9 | 89.2 | 75.7 | 62.4 | 20.6 | 5.63 | 5.09 | 7.74 | 83 | 96.4 | 93.2 | 95.3 | 106 | 70.4 | 45.5 | 13 | 6.23 | 5.5 | 10.9 | 84 | 86 | 95.4 | 91.1 | 82.9 | 77.7 | 52 | 18.8 | 7.36 | 6.69 | 8.55 |
| CN1CCCC(CC1)N2\N=C(CC3=CC=C(Cl)C=C3)/C4=C(C=CC=C4)C2=O (configuration not stated) | 92.9 | 110 | 104 | 114 | 110 | 112 | 99.1 | 106 | 111 | 101 | 74.9 | 72.4 | 78.3 | 71.9 | 79.5 | 81.8 | 94.8 | 90.2 | 98.9 | 83.8 | 80.6 | 73.1 | 91.7 | 108 | 96.2 | 102 | 112 | 105 | 108 | 121 | 96.5 | 109 | 97.6 |
| COc1ccc2[nH]c([S+]([O-])Cc3ncc(C)c(OC)c3C)nc2c1 (configuration not stated) | 83.2 | 84.8 | 66.8 | 87.9 | 71.9 | 70.5 | 86.6 | 42.6 | 72.8 | 74.9 | 75.7 | 83.8 | 91 | 83.9 | 101 | 77.3 | 100 | 96.8 | 63.8 | 87.5 | 87.1 | 69.8 | 81.4 | 83.5 | 77 | 95.8 | 76.7 | 86.8 | 105 | 69.7 | 76.3 | 83.6 | 68.3 |
| c1ccc(CNc2nc(N3CCOc4ccccc43)nc3c2CCCC3)cc1 | 87 | 94.6 | 88.7 | 96.9 | 102 | 109 | 93.3 | 106 | 98.5 | 89.9 | 83.2 | 91 | 88.6 | 87 | 89.4 | 101 | 96.2 | 89.5 | 95.9 | 91.4 | 77.7 | 71 | 75 | 91.3 | 96.5 | 96.8 | 95.5 | 103 | 106 | 108 | 94.5 | 82.7 | 82.9 |
| CN1C(=O)C[C@H](C(=O)N[C@@H](Cc2cnc[nH]2)C(=O)N2CCC[C@H]2C(N)=O)NC1=O | 117 | 108 | 142 | 121 | 111 | 127 | 122 | 120 | 116 | 97.4 | 74.3 | – | – | – | – | – | – | – | – | – | – | – | 104 | 118 | 120 | 122 | 105 | 112 | 104 | 103 | 104 | 98.1 | 50.1 |
| C=CCc1cccc(/C=N/NC(=O)CN2CCN(Cc3ccccc3)CC2)c1O | 124 | 122 | 128 | 137 | 132 | 124 | 144 | 89.4 | 103 | 29.3 | 8.81 | 124 | 114 | 124 | 122 | 131 | 114 | 131 | 105 | 95.4 | 54.8 | 8.05 | – | – | – | – | – | – | – | – | – | – | – |
| Cc1cc(Nc2cc(CN3CCOCC3)c3nc(C)c(Cc4ccc(Cl)cc4F)n3n2)[nH]n1 | 119 | 116 | 113 | 108 | 116 | 105 | 74.6 | 60.5 | 51.4 | 22.9 | 21.4 | 113 | 107 | 114 | 109 | 108 | 83.2 | 61.6 | 58.8 | 49.4 | 14.8 | 6.83 | 109 | 129 | 122 | 92.4 | 106 | 95.2 | 66.1 | 52.7 | 40.9 | 11.6 | 9.11 |
